Experimental data: US10202360B2 (CELGENE QUANTICEL RESEARCH, INC., priority 2016, dated 2019)

Target: CREBBP (Homo sapiens (Human), UniProt Q92793)
Assay: In vitro enzyme inhibition assay - CREBBP inhibition (AlphaScreen, biotinylated H4-tetraacetyl peptide)
Assay type: binding
Conditions: Table 28; AlphaScreen, H4-tetraacetyl peptide
Method in brief: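 His-tagged CREBBP expressed in E. coli (50 nM final) incubated with biotinylated H4K5/8/12/16(Ac) peptide (20 nM final) in HEPES pH 7.3 buffer, 0.4% DMSO, 20 min at room temperature.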

Sequence of CREBBP (Q92793 1081-1197): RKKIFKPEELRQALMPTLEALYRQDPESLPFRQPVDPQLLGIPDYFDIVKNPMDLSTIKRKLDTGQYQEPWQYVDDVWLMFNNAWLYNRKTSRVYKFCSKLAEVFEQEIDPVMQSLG

Row | Structure (SMILES) | IC50 [nM]
1 | CCCS(=O)(=O)Nc1cc(-c2cc(C)c(=O)n(C)c2)nc(Oc2c(C)cc(F)cc2Cl)n1 [Example 99, Propane-1-sulfonic acid [2-(2-chloro-4-fluoro-6-methyl-phenoxy)-6-(1,5-dimethyl-6-oxo-1,6-dihydro-pyridin-3-yl)-pyrimidin-4-yl]-amide] | < 500
2 | Cc1cc(F)cc(Cl)c1Oc1nc(NS(=O)(=O)C(C)C)cc(-c2cc(C)c(=O)n(C)c2)n1 [Example 100, Propane-2-sulfonic acid [2-(2-chloro-4-fluoro-6-methyl-phenoxy)-6-(1,5-dimethyl-6-oxo-1,6-dihydro-pyridin-3-yl)-pyrimidin-4-yl]-amide] | < 500
3 | COc1cc(-c2cc(NS(=O)(=O)C(C)C)nc(Oc3c(C)cccc3C)n2)cn(C)c1=O [Example 105, N-(2-(2,6-dimethylphenoxy)-6-(5-methoxy-1-methyl-6-oxo-1,6-dihydropyridin-3-yl)pyrimidin-4-yl)propane-2-sulfonamide] | < 500
4 | CCCS(=O)(=O)Nc1cc(Oc2c(C)cccc2Cl)nc(-c2cc(C)c(=O)n(C)c2)n1 [Example 107, Propane-1-sulfonic acid [6-(2-chloro-6-methyl-phenoxy)-2-(1,5-dimethyl-6-oxo-1,6-dihydro-pyridin-3-yl)-pyrimidin-4-yl]-amide] | < 500
5 | CCCS(=O)(=O)Nc1cc(-c2cc(C)c(=O)n(C)c2)nc(Oc2ccncc2C)n1 [Example 111, Propane-1-sulfonic acid [6-(1,5-dimethyl-6-oxo-1,6-dihydro-pyridin-3-yl)-2-(3-methyl-pyridin-4-yloxy)-pyrimidin-4-yl]-amide] | 500 to 5000
6 | CCCS(=O)(=O)Nc1cc(-c2cc(C)c(=O)n(C)c2)nc(Oc2cnccc2C)n1 [Example 112, Propane-1-sulfonic acid [6-(1,5-dimethyl-6-oxo-1,6-dihydro-pyridin-3-yl)-2-(4-methyl-pyridin-3-yloxy)-pyrimidin-4-yl]-amide] | < 500
7 | Cc1cccc(F)c1Oc1nc(NS(=O)(=O)C(C)C)cc(-c2cc(Cl)c(=O)n(C)c2)n1 [Example 117, Propane-2-sulfonic acid [6-(5-chloro-1-methyl-6-oxo-1,6-dihydro-pyridin-3-yl)-2-(2-fluoro-6-methyl-phenoxy)-pyrimidin-4-yl]-amide] | < 500
8 | Cc1nn(C)c(C)c1Oc1nc(NS(=O)(=O)C(C)C)cc(-c2ccc(=O)n(C)c2)n1 [Example 125, Propane-2-sulfonic acid [6-(1-methyl-6-oxo-1,6-dihydro-pyridin-3-yl)-2-(1,3,5-trimethyl-1H-pyrazol-4-yloxy)-pyrimidin-4-yl]-amide] | < 500
9 | CCn1nc(C)c(Oc2nc(NS(=O)(=O)C(C)C)cc(-c3cc(C)c(=O)n(C)c3)n2)c1C [Example 127, Propane-2-sulfonic acid [6-(1,5-dimethyl-6-oxo-1,6-dihydro-pyridin-3-yl)-2-(1-ethyl-3,5-dimethyl-1H-pyrazol-4-yloxy)-pyrimidin-4-yl]-amide] | < 500
10 | CCCCS(=O)(=O)Nc1cc(-c2cc(C)c(=O)n(C)c2)nc(Oc2c(C)nn(CC)c2C)n1 [Example 128, Butane-1-sulfonic acid [6-(1,5-dimethyl-6-oxo-1,6-dihydro-pyridin-3-yl)-2-(1-ethyl-3,5-dimethyl-1H-pyrazol-4-yloxy)-pyrimidin-4-yl]-amide] | < 500
11 | CCCS(=O)(=O)Nc1cc(Oc2c(C)cccc2C#N)nc(-c2cc(C)c(=O)n(C)c2)n1 [Example 129, Propane-1-sulfonic acid [6-(2-cyano-6-methyl-phenoxy)-2-(1,5-dimethyl-6-oxo-1,6-dihydro-pyridin-3-yl)-pyrimidin-4-yl]-amide] | < 500
12 | CCCS(=O)(=O)Nc1cc(Oc2c(C#N)cccc2OC)nc(-c2cc(C)c(=O)n(C)c2)n1 [Example 130, Propane-1-sulfonic acid [6-(2-cyano-6-methoxy-phenoxy)-2-(1,5-dimethyl-6-oxo-1,6-dihydro-pyridin-3-yl)-pyrimidin-4-yl]-amide] | < 500
13 | CCS(=O)(=O)Nc1cc(-c2cc(C)c(=O)n(C)c2)nc(OC2CCCC2)n1 [Example 131, Ethanesulfonic acid [2-cyclopentyloxy-6-(1,5-dimethyl-6-oxo-1,6-dihydro-pyridin-3-yl)-pyrimidin-4-yl]-amide] | < 500

The remaining lines, values ahead:

Row | IC50 [nM] | Structure (SMILES)
14 | < 500 | CCCCS(=O)(=O)Nc1cc(-c2cc(C)c(=O)n(C)c2)nc(Oc2c(C)cc(F)cc2Cl)n1 [Example 98, Butane-1-sulfonic acid [2-(2-chloro-4-fluoro-6-methyl-phenoxy)-6-(1,5-dimethyl-6-oxo-1,6-dihydro-pyridin-3-yl)-pyrimidin-4-yl]-amide]
15 | < 500 | CCCS(=O)(=O)Nc1cc(-c2cc(C)c(=O)n(C)c2)nc(Oc2c(C)cccc2Cl)n1 [Example 101, Propane-1-sulfonic acid [2-(2-chloro-6-methyl-phenoxy)-6-(1,5-dimethyl-6-oxo-1,6-dihydro-pyridin-3-yl)-pyrimidin-4-yl]-amide]
16 | < 500 | CCCCS(=O)(=O)Nc1cc(-c2ccc(=O)n(C)c2)nc(Oc2c(C)cccc2Cl)n1 [Example 102, Butane-1-sulfonic acid [2-(2-chloro-6-methyl-phenoxy)-6-(1-methyl-6-oxo-1,6-dihydro-pyridin-3-yl)-pyrimidin-4-yl]-amide]
17 | < 500 | CCCS(=O)(=O)Nc1cc(-c2ccc(=O)n(C)c2)nc(Oc2c(C)cccc2Cl)n1 [Example 103, Propane-1-sulfonic acid [2-(2-chloro-6-methyl-phenoxy)-6-(1-methyl-6-oxo-1,6-dihydro-pyridin-3-yl)-pyrimidin-4-yl]-amide]
18 | < 500 | Cc1cccc(Cl)c1Oc1nc(NS(=O)(=O)C(C)C)cc(-c2ccc(=O)n(C)c2)n1 [Example 104, Propane-2-sulfonic acid [2-(2-chloro-6-methyl-phenoxy)-6-(1-methyl-6-oxo-1,6-dihydro-pyridin-3-yl)-pyrimidin-4-yl]-amide]
19 | < 500 | CCCCS(=O)(=O)Nc1cc(-c2cc(OC)c(=O)n(C)c2)nc(Oc2c(C)cccc2C)n1 [Example 106, N-(2-(2,6-dimethylphenoxy)-6-(5-methoxy-1-methyl-6-oxo-1,6-dihydropyridin-3-yl)pyrimidin-4-yl)butane-1-sulfonamide]
20 | < 500 | CCCCS(=O)(=O)Nc1cc(-c2ccc(=O)n(C)c2)nc(Oc2c(C)cccc2C#N)n1 [Example 108, Butane-1-sulfonic acid [2-(2-cyano-6-methyl-phenoxy)-6-(1-methyl-6-oxo-1,6-dihydro-pyridin-3-yl)-pyrimidin-4-yl]-amide]
21 | < 500 | CCCS(=O)(=O)Nc1cc(-c2ccc(=O)n(C)c2)nc(Oc2c(C)cccc2C#N)n1 [Example 109, Propane-1-sulfonic acid [2-(2-cyano-6-methyl-phenoxy)-6-(1-methyl-6-oxo-1,6-dihydro-pyridin-3-yl)-pyrimidin-4-yl]-amide]
22 | < 500 | Cc1cccc(C#N)c1Oc1nc(NS(=O)(=O)C(C)C)cc(-c2ccc(=O)n(C)c2)n1 [Example 110, Propane-2-sulfonic acid [2-(2-cyano-6-methyl-phenoxy)-6-(1-methyl-6-oxo-1,6-dihydro-pyridin-3-yl)-pyrimidin-4-yl]-amide]
23 | < 500 | CCCCS(=O)(=O)Nc1cc(-c2cc(Cl)c(=O)n(C)c2)nc(Oc2c(C)cccc2C#N)n1 [Example 114, Butane-1-sulfonic acid [6-(5-chloro-1-methyl-6-oxo-1,6-dihydro-pyridin-3-yl)-2-(2-cyano-6-methyl-phenoxy)-pyrimidin-4-yl]-amide]
24 | < 500 | Cc1cccc(C#N)c1Oc1nc(NS(=O)(=O)CCCF)cc(-c2cc(C)c(=O)n(C)c2)n1 [Example 115, 3-Fluoro-propane-1-sulfonic acid [2-(2-cyano-6-methyl-phenoxy)-6-(1,5-dimethyl-6-oxo-1,6-dihydro-pyridin-3-yl)-pyrimidin-4-yl]-amide]
25 | < 500 | CCS(=O)(=O)Nc1cc(-c2ccc(=O)n(C)c2)nc(Oc2c(C)cccc2F)n1 [Example 116, Ethanesulfonic acid [2-(2-fluoro-6-methyl-phenoxy)-6-(1-methyl-6-oxo-1,6-dihydro-pyridin-3-yl)-pyrimidin-4-yl]-amide]
26 | < 500 | Cc1cccc(F)c1Oc1nc(NS(=O)(=O)C(C)C)cc(-c2ccc(=O)n(C)c2)n1 [Example 119, Propane-2-sulfonic acid [2-(2-fluoro-6-methyl-phenoxy)-6-(1-methyl-6-oxo-1,6-dihydro-pyridin-3-yl)-pyrimidin-4-yl]-amide]
27 | < 500 | CCCS(=O)(=O)Nc1cc(-c2ccc(=O)n(C)c2)nc(Oc2c(C)cccc2F)n1 [Example 120, Propane-1-sulfonic acid [2-(2-fluoro-6-methyl-phenoxy)-6-(1-methyl-6-oxo-1,6-dihydro-pyridin-3-yl)-pyrimidin-4-yl]-amide]
28 | < 500 | CCCCS(=O)(=O)Nc1cc(-c2cc(Cl)c(=O)n(C)c2)nc(Oc2c(C)cccc2F)n1 [Example 122, Butane-1-sulfonic acid [6-(5-chloro-1-methyl-6-oxo-1,6-dihydro-pyridin-3-yl)-2-(2-fluoro-6-methyl-phenoxy)-pyrimidin-4-yl]-amide]
29 | < 500 | Cc1cccc(C#N)c1Oc1nc(NS(=O)(=O)CCCF)cc(-c2ccc(=O)n(C)c2)n1 [Example 123, 3-Fluoro-propane-1-sulfonic acid [2-(2-cyano-6-methyl-phenoxy)-6-(1-methyl-6-oxo-1,6-dihydro-pyridin-3-yl)-pyrimidin-4-yl]-amide]
30 | < 500 | CCCCS(=O)(=O)Nc1cc(-c2ccc(=O)n(C)c2)nc(Oc2c(C)nn(C)c2C)n1 [Example 124, Butane-1-sulfonic acid [6-(1-methyl-6-oxo-1,6-dihydro-pyridin-3-yl)-2-(1,3,5-trimethyl-1H-pyrazol-4-yloxy)-pyrimidin-4-yl]-amide]
31 | < 500 | CCCS(=O)(=O)Nc1cc(-c2ccc(=O)n(C)c2)nc(Oc2c(C)nn(C)c2C)n1 [Example 126, Propane-1-sulfonic acid [6-(1-methyl-6-oxo-1,6-dihydro-pyridin-3-yl)-2-(1,3,5-trimethyl-1H-pyrazol-4-yloxy)-pyrimidin-4-yl]-amide]
